SMILES strings stand for the structures.

A short description of this data set: Human HepG2 cell viability assay in 384 well format. Type of data set: toxicity, cell-based. Further details: dose 125 nL, time 70.5 hour; concentration not given beside the values. The following applies: HepG2 cells, read-out: Inhibition.
As to `CC(O)CCN(C)C(=O)Nc1cc(F)cc(Br)c1` (centres undefined), the cytotoxicity at 70.5 h was 1.72%.

For `CC/C(C)=C/CCN1CCN(C)C2(CCNC(=O)CC2)C1` (centres undefined), the cytotoxicity at 70.5 h is -6.34%.

On to `O=C([C@@H]1C[C@@H]2CCN(c3cccc(F)c3)C[C@H]2O1)N1CCCC1`, for which the cytotoxicity at 70.5 h worked out at 27.2%.

For `CCc1nc(C2CCCN2C(=O)c2cc(C3CC3)[nH]n2)no1` (centres undefined), the cytotoxicity at 70.5 h is -1.42%.

On to `CSC(C)CCN(Cc1ccccn1)Cc1sccc1C` (centres undefined), for which the cytotoxicity at 70.5 h was -4.96%.

In the case of `CN(Cc1ccsc1)C(=O)COC(=O)c1cc(Cl)c[nH]1`, the cytotoxicity at 70.5 h was -2.89%.

For the compound `Cc1ccc(CN2C[C@H](C(=O)N3CCCCO3)[C@@H]3CCO[C@@H]3C2)o1`, the cytotoxicity at 70.5 h was -5.78%.

With `C1=CCN(c2nc(CC3CC3)nc3c2CCN(C2CCOCC2)CC3)C1`, the cytotoxicity at 70.5 h was -1.95%.

In the case of `CNC(=O)Nc1cc(-c2ccc(Br)cc2)nn1CCO`, the cytotoxicity at 70.5 h was -0.486%.

Consider `COCCN1CCN(C(=O)C[C@@H]2C[C@@H](C(C)C)[C@H](CO)C=C2C)CC1`, for which the cytotoxicity at 70.5 h was -3.05%.

With `COc1ccc(CNC(C)c2cccc(Br)c2)c(OC)c1OC` (centres undefined), the cytotoxicity at 70.5 h was 17.6%.

As for `Cc1cc(C)n(CC(C)NCc2nc(-c3cccnc3)no2)n1` (centres undefined), the cytotoxicity at 70.5 h is -6.9%.

For `CCn1cc(NC(=O)NCC(c2cccc(OC)c2)N(C)C)cn1` (centres undefined), the cytotoxicity at 70.5 h is -8.98%.

For the compound `CN(CCC#N)C(=O)CN1CCC(c2cc3ccccc3[nH]2)CC1`, the cytotoxicity at 70.5 h turned out to be 4.21%.

`CCCc1n[nH]c(C2CN(C(=O)CCn3nc(C)cc3C)CCO2)n1` (centres undefined): the cytotoxicity at 70.5 h stood at 0.729%.

Consider `Cc1nc(C)n(CC2CCCN2CC(=O)Nc2c(C)n[nH]c2C)n1` (centres undefined), for which the cytotoxicity at 70.5 h is -1.18%.

For `O=C(c1ccccc1)N1CCC2(CCCN2c2ncccn2)CC1`, the cytotoxicity at 70.5 h amounted to 3.93%.

With `COc1ccc(CN(C)[C@@H]2CN(C(=O)c3cnn(C)c3)C[C@H]2O)cc1`, the cytotoxicity at 70.5 h is -6.51%.

Turning to `O=C1NC[C@@]2(C(=O)O)CN(Cc3cccc(Oc4ccccc4)c3)C[C@@H]12`, the cytotoxicity at 70.5 h was -4.3%.

With `O=C1CCC2(CCOC2)CN1Cc1ccc2nsnc2c1` (centres undefined), the cytotoxicity at 70.5 h was -3.21%.

With `O=C1Nc2ccccc2/C1=C1\CCCCCN1`, the cytotoxicity at 70.5 h was -9.34%.

On to `O=C(NCC1(CO)CC1)c1ccccc1Cl`, for which the cytotoxicity at 70.5 h was -14.1%.

Take `CN1CCN(Cc2cn3c(n2)CN(Cc2ccncc2)CC3)CC1`: the cytotoxicity at 70.5 h turned out to be 14%.

As for `COc1ccccc1CNC(=O)Cn1nc(-c2ccc(F)cc2)oc1=O`, the cytotoxicity at 70.5 h amounted to 10.9%.

Take `Cc1ccc(CS(=O)(=O)N2CC[C@H]3[C@H]2CCN3C)cc1`: the cytotoxicity at 70.5 h was -5.67%.

As for `O=C(CSCC1CC1)N1CCc2[nH]nc(COc3ccccc3)c2C1`, the cytotoxicity at 70.5 h is -6.96%.

As for `CC(C)N(C)[C@@H]1CCN(C(=O)c2ccc[nH]2)[C@H]1Cc1cnn(C)c1`, the cytotoxicity at 70.5 h is -8.9%.

As to `O=C(NC[C@H]1OC[C@@H](NC2CCC(F)(F)CC2)[C@@H]1O)N1CCOCC1`, the cytotoxicity at 70.5 h is -6.74%.

Take `O=C(Cc1ccccn1)N1C[C@@H]2CC[C@H](C1)N(Cc1ccccc1)C2=O`: the cytotoxicity at 70.5 h stood at 6.93%.

Take `CCN1CCOCC12CCN(C(=O)Cc1cccs1)CC2`: the cytotoxicity at 70.5 h was -8.5%.

For `Cc1ccc(-c2cn[nH]c2C2CCCN(c3ncccn3)C2)cc1` (centres undefined), the cytotoxicity at 70.5 h amounted to 22.7%.

As for `Cc1nc(CNC(=O)CC2C(=O)NCCN2CCC(C)C)n[nH]1` (centres undefined), the cytotoxicity at 70.5 h is -8.3%.

As for `c1cc(-c2noc([C@@H]3Cc4nc[nH]c4CN3)n2)ccn1`, the cytotoxicity at 70.5 h came out at 1.06%.

Take `CN(C)CC(=O)N1Cc2nnn(C)c2C(COCc2ccccn2)C1` (centres undefined): the cytotoxicity at 70.5 h was 9.45%.

Regarding `CS(=O)(=O)CCOCCNc1ccc(Br)cn1`, the cytotoxicity at 70.5 h was -3.34%.

For the compound `Cc1cc(C(=O)N2CCC(O)(Cn3ccc4ccncc43)CC2)on1`, the cytotoxicity at 70.5 h came to 17.8%.

As for `O=C1CCNc2ncc(-c3cccc(Cl)c3)cc2CN1C1CC1`, the cytotoxicity at 70.5 h is -1.89%.

For `CS(=O)(=O)Cc1ccc(C(=O)NC2CCc3nccn3C2)o1` (centres undefined), the cytotoxicity at 70.5 h was -6.33%.

Turning to `CN1CCC(c2nnc(CN3CCCCC3)n2C)CC1`, the cytotoxicity at 70.5 h was -9.09%.

With `Cc1ccc(Oc2ncccc2CNC(=O)NC2CCCCC2)cn1`, the cytotoxicity at 70.5 h was -6.45%.

Turning to `CCN1CCCC1CNCc1cc2cc3c(cc2[nH]c1=O)OCCO3` (centres undefined), the cytotoxicity at 70.5 h is -1.38%.

Turning to `CCNC(=O)N1CCC(NC(=O)NCCc2ccc(C)cc2C)C1` (centres undefined), the cytotoxicity at 70.5 h is -3.65%.

`CCCS(=O)(=O)CC(=O)N1CCN(CC2CC2)c2ccccc21`: the cytotoxicity at 70.5 h was -7.98%.

`CCn1cc(C(=O)NCC(C)(CC)N2CCOCC2)c2ccccc21` (centres undefined): the cytotoxicity at 70.5 h was 5.27%.

Turning to `Cc1cccc(OC2CCN(c3ncc(C#N)cc3Cl)CC2)n1`, the cytotoxicity at 70.5 h was -6.22%.

Regarding `CCCn1nnc(NCc2cc(Br)cc(Br)c2OC)n1`, the cytotoxicity at 70.5 h is -9.35%.

For the compound `Cc1cccc(CN(Cc2cccnc2)C2CC(C)(C)NC(C)(C)C2)n1`, the cytotoxicity at 70.5 h was -1.41%.

In the case of `Cc1ccc(C2CCCN2CC(=O)N(CCC#N)c2ccccc2)cc1` (centres undefined), the cytotoxicity at 70.5 h was -7.81%.

Regarding `OC1CCCOC12CCN(c1ncccn1)CC2` (centres undefined), the cytotoxicity at 70.5 h was 15.7%.

As for `O=C(NCCc1ccn(-c2ccc(F)cc2)n1)C1CCCOC1` (centres undefined), the cytotoxicity at 70.5 h is -1.01%.

As to `Cc1cnc(CN(C)C2CCCN(Cc3noc(C4CC4)n3)C2)cn1` (centres undefined), the cytotoxicity at 70.5 h worked out at 16.1%.

With `Cc1nn(C)c(Cl)c1S(=O)(=O)N(C)C`, the cytotoxicity at 70.5 h came to 1.44%.

Consider `CCN1CCn2c(C)cnc2C12CCN(C(=O)N(C)C)CC2`, for which the cytotoxicity at 70.5 h was -9.01%.

In the case of `O=C(NC1CCCC1)c1ccc(C2CCCNC2)nc1` (centres undefined), the cytotoxicity at 70.5 h amounted to 9.52%.

For the compound `O=C1CC(c2ncc(-c3ccc4c(c3)OCCO4)[nH]2)CN1C1CCCC1` (centres undefined), the cytotoxicity at 70.5 h was -4.48%.

Turning to `Cc1occc1C(=O)N1C[C@@H]2OCCN(c3ncccn3)[C@@H]2C1`, the cytotoxicity at 70.5 h is -11.6%.

Consider `CCS(=O)(=O)N1Cc2ccccc2CC1C(=O)OCc1cc(C)no1` (centres undefined), for which the cytotoxicity at 70.5 h was -7.63%.

As for `COc1ccc(CC(=O)N2CCN(Cc3ccco3)C[C@@H]2C)cc1OC`, the cytotoxicity at 70.5 h was -3.94%.

For `CCc1ccc(O)c(C(=O)NC2CCN(S(=O)(=O)CC)CC2)c1`, the cytotoxicity at 70.5 h stood at 8.84%.

Turning to `O=C(CNC1CCc2ncnn2C1)N(C1=CCCCC1)C1CC1` (centres undefined), the cytotoxicity at 70.5 h is -2.56%.

As for `OC1(CN2CCC(Cc3ncccn3)CC2)CCCCC1`, the cytotoxicity at 70.5 h is -5.56%.

In the case of `O=C(NCCn1ccc(-c2ccccn2)n1)c1ccncc1`, the cytotoxicity at 70.5 h is 11.3%.

Take `O=C(NCCNC(=O)C1Cc2cc(F)ccc2O1)C1CCCCC1` (centres undefined): the cytotoxicity at 70.5 h is -9.82%.

On to `CC(C)COC(=O)N1CCCN(C(C)c2nc(C(C)C)no2)CC1` (centres undefined), for which the cytotoxicity at 70.5 h was -3.98%.

On to `Cc1c(NCc2cccc(C#N)c2)cccc1S(=O)(=O)NC1CC1`, for which the cytotoxicity at 70.5 h was determined as 4.95%.

Regarding `COc1ccc(CC(=O)N2CCCN(c3ccc(C#N)cc3)CC2)cc1`, the cytotoxicity at 70.5 h is -2.17%.

For the compound `CCN1Cc2ccccc2CC2(CCN(CC3CCC3)CC2)C1=O`, the cytotoxicity at 70.5 h stood at 11.7%.

Consider `CC(C)(C)c1cnc(CN2CCC(CN3CCOCC3)CC2)o1`, for which the cytotoxicity at 70.5 h worked out at 22.6%.

On to `O=C(CN1CCN(c2ccc3nncn3n2)CC1)NC1CCCCC1`, for which the cytotoxicity at 70.5 h was -11.1%.

As for `OC1(CN2CCCC2)COCCN(c2cc(C(F)(F)F)ccn2)C1` (centres undefined), the cytotoxicity at 70.5 h was -7.83%.

`Cc1oc(C(=O)O)cc1S(=O)(=O)Nc1ccc(Cl)c(F)c1`: the cytotoxicity at 70.5 h is -6.62%.

Consider `O=C(CCNS(=O)(=O)c1ccc(F)c(F)c1)NCc1ccoc1`, for which the cytotoxicity at 70.5 h is -3.45%.

For `Cc1nn(C)c(C)c1C1CCCN1CCCc1nc2ccccc2o1` (centres undefined), the cytotoxicity at 70.5 h was -8.55%.

As to `Cc1ccc(C)c2c(O)cc(CNCC(=O)N3CCCC3)nc12`, the cytotoxicity at 70.5 h turned out to be 22%.

Regarding `CCOCC1CN(C(=O)N(C)C)Cc2nn(C)cc21` (centres undefined), the cytotoxicity at 70.5 h is -5.53%.

For `CCC1CN(Cc2nnc(C(C)C)o2)CCC(=O)N1Cc1ccccc1` (centres undefined), the cytotoxicity at 70.5 h was -10.7%.

As for `COCC(=O)N1CCc2nc(NC(C)C)nc(NC(C)C)c2CC1`, the cytotoxicity at 70.5 h was -0.713%.

As to `CCN(CC)S(=O)(=O)c1ccc2c(c1)N(Cc1ccncc1)C(=O)CS2`, the cytotoxicity at 70.5 h was -3.41%.

Turning to `CCOCCNC(=O)Cc1cccc(I)c1`, the cytotoxicity at 70.5 h worked out at 0.854%.

For the compound `C=Cn1ncc(CN2CCC(c3ncc(Cl)cc3S(C)(=O)=O)CC2)c1C`, the cytotoxicity at 70.5 h was found to be 10%.

For `O=C(CNc1ccc(OC2CCOC2)cc1)NCc1ccc(F)cc1` (centres undefined), the cytotoxicity at 70.5 h is -10.9%.

Regarding `CN1CCCC2(CCN(c3cccc(C(F)(F)F)n3)C2)C1=O` (centres undefined), the cytotoxicity at 70.5 h is -6.46%.

Regarding `CC(C)Cc1cc(C(=O)NCCc2ccc(S(C)(=O)=O)cc2)[nH]n1`, the cytotoxicity at 70.5 h is -7.03%.

Regarding `Cc1cnn(CC2CCCN2C(=O)c2ccc(-n3cccn3)nc2)c1` (centres undefined), the cytotoxicity at 70.5 h was -1.39%.

Consider `Cn1cc(CN2CCc3ccc(=O)n(CC4CC4)c3CC2)cn1`, for which the cytotoxicity at 70.5 h was found to be 4.08%.

Regarding `COc1ccc(CN2CCN(c3nccnc3OC)CC2=O)cc1`, the cytotoxicity at 70.5 h is -4.78%.

For `Cn1cc(CCNCc2cc(Cl)c3c(c2)OCCO3)cn1`, the cytotoxicity at 70.5 h is -2.02%.

Take `NC(=O)C1CCCN1C1CCN(C(=O)c2cccc3c2OCO3)CC1` (centres undefined): the cytotoxicity at 70.5 h is -0.518%.

Consider `Cc1cc(C)n(C2CN(CC(O)c3ccc4c(c3)OCO4)C2)n1` (centres undefined), for which the cytotoxicity at 70.5 h is -2.16%.

Take `Cc1c[nH]nc1C1CCN(c2cnccn2)C1` (centres undefined): the cytotoxicity at 70.5 h is 5.06%.

`CCN(CC)C1(Cc2cc(CC(C)C)on2)COC1`: the cytotoxicity at 70.5 h turned out to be 0.19%.

Regarding `CN(C)CCNC(=O)c1nc2c(s1)CCCN2C(=O)C1CC1`, the cytotoxicity at 70.5 h was -2.21%.

Turning to `CNCc1cc(F)ccc1Oc1ccc(Cl)cc1`, the cytotoxicity at 70.5 h stood at 2.13%.

Consider `O=C(c1ccc(-c2cc[nH]n2)cc1)N1CC[C@H](CO)[C@H](O)C1`, for which the cytotoxicity at 70.5 h was determined as 0.543%.

For `Cc1nnc(NC(=O)NCc2ccc(N3CCN(C)CC3)nc2)s1`, the cytotoxicity at 70.5 h is -24.8%.

With `Cn1nnnc1SC1CCc2ccccc2NC1=O` (centres undefined), the cytotoxicity at 70.5 h was -24.7%.

For `CC(C)(C)C(=O)N1CCCc2c(cnn2-c2ccccc2)C1`, the cytotoxicity at 70.5 h stood at 1.62%.

Turning to `CN1CSC[C@H]1C(=O)N1CCN(Cc2cccc(F)c2)CC1`, the cytotoxicity at 70.5 h came to 8.84%.

As for `Cc1ccc(-c2nnc(C(C)NCCn3cc(C)cn3)o2)cc1` (centres undefined), the cytotoxicity at 70.5 h is -14.8%.

Source of the values: ChEMBL document CHEMBL3507680, “University of Dundee, Gates Library screen for HepG2 cell viability”.
